Test results: patent publication US9982005B2, “Macrolides and methods of their preparation and use” (President and Fellows of Harvard College, priority 2013, dated 2018)
≈ marks a conversion by molar mass, not a printed value. Read-outs that look alike come from different tables or passages of the source.

What was measured:
Format in all cases: cell-based
[1] = tested on: HI175 H. influenzae ATCC49247; assay: broth dilution MIC, H. influenzae HI175; settings: Haemophilus influenzae
Source text: (§1) We have collected MIC data for a total of 50 novel macrolides that this platform has produced against over 21 unique strains of B. subtilis, E. coli, S. aureus, S. pneumoniae, and H. influenzae, including several multidrug-resistant strains, with a special focus on macrolide resistant mechanisms (vide supra). Azithromycin was included as a control macrolide. CLSI standard procedures for broth dilution MIC determination were used. […] These genotypes can be constitutive or inducible. The finding that C4-epi (unnatural) isomers of the “azaketolide” macrolide class have enhanced activities relative to C4 natural isomers is very exciting.

[2] = tested on: BS1723 B. subtilis BS168 WT wild type; assay: broth dilution MIC, B. subtilis BS1723; settings: Bacillus subtilis, BS1723 B. subtilis BS168 WT wild type; read-out: MIC
In short: (§2)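 An azithromycin control accompanied the test macrolides, which were assayed by CLSI-standard broth microdilution-type MIC determination. Some strains carry constitutive or inducible macrolide-resistance genotypes.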

[3] = tested on: Spn1509 S. pneumoniae ermB positive mefA negative; assay: broth dilution MIC, S. pneumoniae Spn1509; settings: Streptococcus pneumoniae; Spn1509 S. pneumoniae ermB positive mefA negative; read-out: MIC
Source text: as §1

[4] = tested on: SA183 S. aureus ermA positive msrA unknown; assay: broth dilution MIC, S. aureus SA183; settings: Staphylococcus aureus
Source text: as §1

[5] = tested on: Spn1533 S. pneumoniae ermB positive mefA positive; assay: broth dilution MIC, S. pneumoniae Spn1533; settings: Streptococcus pneumoniae
Source text: as §1

[6] = tested on: BS1725 B. subtilis ermC; assay: broth dilution MIC, B. subtilis BS1725; settings: Bacillus subtilis, BS1725 B. subtilis ermC (+ery)
In short: as §2

[7] = tested on: Spn 106 S. pneumonia ATCC49619; assay: broth dilution MIC, S. pneumoniae Spn 106; settings: Streptococcus pneumoniae; Spn 106 S. pneumonia ATCC49619; read-out: MIC
Source text: as §1

[8] = tested on: EC882 E. coli imp; assay: broth dilution MIC, E. coli EC882
In short: as §2

[9] = tested on: SA418 S. aureus ermA negative msrA positive; assay: broth dilution MIC, S. aureus SA418; settings: Staphylococcus aureus
Source text: as §1

[10] = tested on: SA101 S. aureus ATCC29213; assay: broth dilution MIC, S. aureus SA101; settings: Staphylococcus aureus, ATCC29213, SA101 S. aureus ATCC29213; read-out: MIC
In short: as §2

[11] = tested on: HI281 H. influenzae; assay: broth dilution MIC, H. influenzae HI281; settings: Haemophilus influenzae
Source text: as §1

[12] = tested on: SA506 S. aureus ermA positive msrA unknown; assay: broth dilution MIC, S. aureus SA506; settings: Staphylococcus aureus
Source text: as §1

[13] = tested on: Spn1537 S. pneumoniae ermB positive mefA positive; assay: broth dilution MIC, S. pneumoniae Spn1537; settings: Streptococcus pneumoniae
Source text: as §1

[14] = tested on: EC878 E. coli tolC; assay: broth dilution MIC, E. coli EC878; settings: Escherichia coli
In short: as §2

[15] = tested on: Spn160 S. pneumoniae ermB unknown mefA positive; assay: broth dilution MIC, S. pneumoniae Spn160; settings: Streptococcus pneumoniae
Source text: as §1

[16] = tested on: EC107 E. coli ATCC25922; assay: broth dilution MIC, E. coli EC107; settings: Escherichia coli, read-out: MIC
In short: as §2

[17] = tested on: SA557 S. aureus ermA unknown msrA positive; assay: broth dilution MIC, S. aureus SA557; settings: Staphylococcus aureus; SA557 S. aureus ermA unknown msrA positive; read-out: MIC
Source text: as §1

[18] = tested on: SA1708 S. aureus ermA positive msrA negative; assay: broth dilution MIC, S. aureus SA1708; settings: Staphylococcus aureus
Source text: as §1

[19] = tested on: SA1707 S. aureus ermA negative msrA positive; assay: broth dilution MIC, S. aureus SA1707; settings: Staphylococcus aureus
Source text: as §1

[20] = tested on: Spn1427 S. pneumoniae ermB positive mefA negative; assay: broth dilution MIC, S. pneumoniae Spn1427; settings: Streptococcus pneumoniae
Source text: as §1

[21] = tested on: H. influenzae strains; assay: MIC against H. influenzae strains (Table M8); settings: Haemophilus influenzae
In short: as §2

[22] = tested on: E. coli (MC4100); assay: MIC, E. coli MC4100; settings: Escherichia coli, round 1, read-out: MIC
Source text: as §1

[23] = tested on: E. faecalis strains; assay: MIC against E. faecalis strains (Table M8); settings: Enterococcus faecalis, E. faecalis 29212
[24] = tested on: K. pneumoniae strains; assay: MIC against K. pneumoniae strains (Table M8); settings: Klebsiella pneumoniae, K. pneumoniae 10031
[25] = tested on: S. pneumoniae strains; assay: MIC against S. pneumoniae strains (Tables M7, M8); settings: Streptococcus pneumoniae
Source text: CLSI standard procedures for broth dilution MIC determination were used. […] These genotypes can be constitutive or inducible.

[26] = tested on: A. baumannii strains; assay: MIC against A. baumannii strains (Table M8); settings: Acinetobacter baumannii, BAA747, A. baumannii BAA747-1
[27] = tested on: S. aureus (Newman, clinical isolate); assay: MIC, S. aureus Newman; settings: Staphylococcus aureus, S. aureus (Newman, clinical isolate), round 1
Source text: as §1

[28] = tested on: E. coli strains; assay: MIC against E. coli strains (Table M7); settings: Escherichia coli, ATCC25922, E. coli ATCC 25922
In short: as §2

[29] = tested on: S. aureus strains; assay: MIC against S. aureus strains (Table M7); settings: Staphylococcus aureus
In short: as §2

Compound	MIC [1] [µg/mL]	MIC [2] [µg/mL]	MIC [3] [µg/mL]	MIC [4] [µg/mL]	MIC [6] [µg/mL]	MIC [7] [µg/mL]	MIC [9] [µg/mL]	MIC [10] [µg/mL]	MIC [11] [µg/mL]	MIC [12] [µg/mL]	MIC [13] [µg/mL]	MIC [14] [µg/mL]	MIC [16] [µg/mL]	MIC [17] [µg/mL]	MIC [18] [µg/mL]	MIC [19] [µg/mL]	also measured
CC[C@H]1OC(=O)C(C)(F)C(=O)[C@@H](C)[C@@H](O[C@@H]2OC(C)CC(N(C)C)C2O)[C@](C)(OC)C[C@@H](C)CN(C)[C@H](C)[C@H]2N(CCCCn3cc(-c4nccs4)nn3)C(=O)O[C@]12C (stereo partly shown) [FSM-20705]	16 to 32 (≈ 18.8 to 37.6 µM)	8 (≈ 9.39 µM)	4 to 16 (≈ 4.69 to 18.8 µM)	> 32	> 32	0.125 to 0.25 (≈ 0.147 to 0.293 µM)	16 (≈ 18.8 µM)	8 (≈ 9.39 µM)	> 32	> 32	> 32	2 (≈ 2.35 µM)	> 32	8 (≈ 9.39 µM)	16 (≈ 18.8 µM)	32 (≈ 37.6 µM)	MIC [5]: > 32 µg/mL; MIC [8]: 0.25 µg/mL (≈ 0.293 µM); MIC ([15]; Spn160 S. pneumoniae ermB unknown mefA positive, read-out: MIC): 0.5 to 1 µg/mL (≈ 0.587 to 1.17 µM)
CC[C@H]1OC(=O)C(C)(F)C(=O)[C@H](C)[C@@H](O[C@@H]2OC(C)CC(N(C)C)C2O)[C@](C)(OC)C[C@@H](C)CN[C@H](C)[C@H]2N(CCCCn3cc(-c4ccccn4)nn3)C(=O)O[C@]12C (stereo partly shown) [FSM-20738]	0.5 to 8 (≈ 0.601 to 9.62 µM)	0.25 (≈ 0.3 µM)	0.5 to 8 (≈ 0.601 to 9.62 µM)	> 32	4 (≈ 4.81 µM)	0.0156 to 0.25 (≈ 0.0187 to 0.3 µM)	1 (≈ 1.2 µM)	0.5 to 1 (≈ 0.601 to 1.2 µM)	4 to 32 (≈ 4.81 to 38.5 µM)	> 32	> 32	1 (≈ 1.2 µM)	8 (≈ 9.62 µM)	1 (≈ 1.2 µM)	2 (≈ 2.4 µM)	1 (≈ 1.2 µM)	MIC [20]: > 32 µg/mL; MIC ([21]; H. influenzae 49247, read-out: MIC H. influenzae (49247)): 0.5 µg/mL (≈ 0.601 µM); MIC ([21]; H. influenzae 49766, read-out: MIC H. influenzae (49766)): 4 µg/mL (≈ 4.81 µM); MIC [22]: 8 µg/mL (≈ 9.62 µM); MIC [23]: 0.125 µg/mL (≈ 0.15 µM); MIC [24]: 4 µg/mL (≈ 4.81 µM); MIC ([8]; Escherichia coli): 0.0625 µg/mL (≈ 0.0751 µM); MIC ([25]; S. pneumoniae 1509, read-out: MIC S. pneumoniae (1509)): 2 µg/mL (≈ 2.4 µM); MIC ([25]; S. pneumoniae 1533, read-out: MIC S. pneumoniae (1533)): > 32 µg/mL; MIC ([25]; S. pneumoniae 1537, read-out: MIC S. pneumoniae (1537)): > 32 µg/mL; MIC ([25]; read-out: MIC S. pneumonae (160)): ≤ 0.0625 µg/mL; MIC ([25]; read-out: MIC S. pneumoniae (49619)): ≤ 0.0625 µg/mL; MIC [26]: 32 µg/mL (≈ 38.5 µM); MIC [27]: 1 µg/mL (≈ 1.2 µM); MIC [28]: 8 µg/mL (≈ 9.62 µM); MIC [15]: 0.0625 to 1 µg/mL (≈ 0.0751 to 1.2 µM); MIC ([29]; ATCC29213, S. aureus ATCC 29213, read-out: MIC S. aureus (ATCC 29213)): 0.5 µg/mL (≈ 0.601 µM); MIC ([29]; S. aureus 506, read-out: MIC S. aureus (506)): > 32 µg/mL; MIC ([29]; S. aureus 1708, read-out: MIC S. aureus (1708)): 0.5 µg/mL (≈ 0.601 µM); MIC ([29]; USA300, S. aureus USA300, read-out: MIC S. aureus (USA300)): 1 µg/mL (≈ 1.2 µM)
